Like-named read-outs stand apart in the source and are kept apart here.
Tests used:
[1] = Alamar Blue cell viability assay, Caco-2; format: cell-based, human; conditions: human, Caco-2
Description: (§1) The safety profile of T. carnosus AD and HE extracts was evaluated in Caco-2 and HepG2 cells using an Alamar Blue® (Invitrogen; Alfagene, Lisboa, Portugal) assay. An initial screening was performed for all extracts at concentrations ranging between 100 and 1000 µg/mL. Due to the higher toxicity of the HE extracts, which was previously described for various extracts of Thymus species using the same extraction methods (e.g., T. mastichina and Thymus zygis), a different set of concentrations was used for the HE extracts (between 100 and 300 µg/mL for Caco-2 cells and 50 and 150 µg/mL for HepG2 cells). Figure 1 presents the data related to the cell viability assays in Caco-2 (panels A–E) and HepG2 cells (panels F–J) exposed to T. carnosus extracts, as indicated.
(§2) The safety profile of T. carnosus extracts was assessed in Caco-2 and HepG2 cells. Caco-2 (human colon adenocarcinoma cell line) were obtained from CLS (Cell Lines Service, Eppelheim, Germany), and HepG2 (human hepatocellular carcinoma cell line) were obtained from ATCC (American Type Culture Collection, Manassas, VA, USA).
(§3) Cell culture maintenance, handling, subculturing, and seeding were performed as described by Silva et al., 2020 [5], and cell viability was assessed using an Alamar Blue® assay, as described by Andreani et al., 2014 [64]. Concentrations ranged between 100 and 1000 µg/mL for AD extracts in both cell lines and 100 to 300 µg/mL or 50 to 150 µg/mL for HE extracts in Caco-2 and HepG2 cells, respectively. The effect of individual compounds on cell viability was assessed for concentrations ranging from 50 to 300 µM. All test solutions were prepared by diluting the samples in FBS-free culture media from the stock solutions described in Section 3.2, just prior to being used.
(§4) The results are presented as mean ± SD of at least three independent assays. The calculation of IC50 values was performed as described by Silva et al., 2020 [5]. Data analysis, graphical design, and statistical analysis were performed using Microsoft Office Excel (Professional Plus 2019; Microsoft Corporation, Washington, DC, USA) and GraphPad Prism (Version 8; GraphPad Software Inc., San Diego, CA, USA). Flow cytometry data analysis was performed using BD Accuri™ C6 Software, version 1.0.264.21 (Becton Dickinson, San Diego, CA, USA).

Caco-2 cells [2] = assay: Alamar Blue cell viability assay, Caco-2; format: cell-based, human; conditions: for IC50: Homo sapiens
Description: as §1, §2, §3, §4

[3] = Alamar Blue cell viability assay, HepG2; format: cell-based, human; conditions: human, HepG2 cells
Description: as §1, §2, §3, §4

HepG2 cells [4] = assay: Alamar Blue cell viability assay, HepG2; format: cell-based, human; conditions: for IC50: Homo sapiens
Description: as §1, §2, §3, §4

Caco-2 cells [5] = assay: Intracellular ROS (DCFDA, flow cytometry), Caco-2; format: cell-based; conditions: compound 50 µM, 24 h
Description: (§5) The cells were then equally divided for each assay.
(§6) Intracellular ROS level assessment was performed as described by Silva et al., 2022 [65], using dichlorodihydrofluorescein diacetate (DCFDA). Cells obtained in the previous step were centrifuged, the supernatant discarded, and 200 µL of DCFDA (10 µM in FBS-free DMEM) was added. Cells were incubated for 45 min (37 °C, in the dark), washed to remove excess probe, and resuspended in PBS for data acquisition.

HepG2 cells [6] = assay: Intracellular ROS (DCFDA, flow cytometry), HepG2; format: cell-based, human; conditions: compound 50 µM, 24 h
Description: as §5, §6

HepG2 cells [7] = assay: Mitochondrial membrane potential (JC-1, flow cytometry), HepG2; format: cell-based, human; conditions: compound 50 µM, 24 h
Description: (§7) Flow cytometry was used to analyze the effect of T. carnosus extracts on intracellular ROS, modulation of mitochondrial membrane potential (MMP), cell cycle arrest, and apoptotic/necrotic cell death induction.
(§8) Both one- and two-color assays were performed using a BD Accuri™ C6 cytometer (Becton Dickinson, Franklin Lakes, NJ, USA), and 10,000 gated events were collected from each sample [1]. For flow cytometry assays, cells were handled as described previously but seeded at a density 5 × 10^4 cells/mL (750 μL/well) in 12-well plates. Caco-2 and HepG2 cells were incubated for 24 h with the extracts (100 µg/mL) or individual phytochemicals (50 µM) diluted in FBS-free culture media h. After incubation, test solutions were removed; the cells were washed with PBS and detached from the plates using trypsin-EDTA. Once transferred to centrifuge tubes, the cells were centrifuged (bench micro-centrifuge; 3000 rpm; 3 min), the supernatant was discarded, and a new wash cycle was performed. The cells were then equally divided for each assay. A negative control was used in all assays consisting of nonexposed cells incubated only with culture media.
(§9) Mitochondrial membrane potential (MMP) was evaluated using 5,5″,6,6″-tetrachloro-1,1″,3,3″-tetraethylbenzimidazolylcarbocyanineiodide (JC-1). Cells were processed as described for DCFDA but incubated with 200 µL of JC-1 (2 µM, in FBS-free DMEM) for 20 min (37 °C, in the dark).

Caco-2 cells [8] = assay: Annexin V-FITC/PI apoptosis/necrosis, Caco-2; format: cell-based; conditions: compound 50 µM, 24 h
Description: as §5
(§10) For the assessment of apoptotic/necrotic cell death, an Annexin V-FITC (Thermo Fisher Scientific, Waltham, MA, USA) and propidium iodide (PI; Merck, Darmstadt, Germany) double-staining assay was used to evaluate the apoptotic/necrotic cell death induced by T. carnosus extracts and by individual phytochemicals, as described previously. Briefly, after detachment and washing, the supernatant was discarded, and 200 µL of Annexin V-FITC (1:200 dilution in Annexin-binding buffer [10 mM HEPES sodium salt, 150 mM NaCl, 5 mM KCl, 5 mM MgCl2, and 1.8 mM CaCl2; pH = 7.4]) was added. Cells were incubated for 20 min (room temperature, in the dark). After incubation, 5 µL of propidium iodide (PI; 50 µg/mL) was added, the cells were incubated for 5 min on ice (in the dark), and the data were acquired.

HepG2 cells [9] = assay: Annexin V-FITC/PI apoptosis/necrosis, HepG2; format: cell-based, human; conditions: compound 50 µM, 24 h
Description: as §5, §10

[10] = test system: human lung cancer (A549) cells; conditions: cited from earlier work
[11] = test system: normal and tumoral human nasopharyngeal cells; parameters: method as in PMID 33277860; conditions: 24 h; cited from earlier work
Caco-2 cells [12] = assay: Cell cycle arrest (PI, flow cytometry), Caco-2; format: cell-based; conditions: compound 50 µM, 24 h
Description: as §5
(§11) Cell cycle arrest assessment was performed as described in [1]. Cells were processed as described above until cell detachment and centrifuged, after which the second washing step was performed with ice-cold PBS (0 °C). After centrifugation, the supernatant was discarded, and cells were fixed with 500 µL of ethanol:PBS solution (70:30, % v/v, previously cooled at −20 °C) for at least 4 h at −20 °C. After fixation, two washing cycles were performed: the first with ice-cold PBS (0 °C) and the second with room-temperature PBS, followed by the addition of 200 µL of a PBS solution containing PI (50 µg/mL), RNAse A (50 µg/mL), and Triton X-100 (0.1%). Cells were incubated for 30 min at 37 °C, and then cells were washed once with PBS to remove the staining solution. After resuspension in PBS, the data were acquired.

HepG2 cells [13] = assay: Cell cycle arrest (PI, flow cytometry), HepG2; format: cell-based, human; conditions: compound 50 µM, 24 h
Description: as §5, §11

[14] = test system: murine melanoma cells (B16-BL6 cells); parameters: method as in PMID 15538571; conditions: cited from earlier work
[15] = test system: human prostate cancer cells; parameters: method as in PMID 29898731; conditions: 40 µM; cited from earlier work
Caco-2 cells [16] = conditions: cited from earlier work
HepG2 cells [17] = conditions: 24 h of exposure; cited from earlier work
Caco-2 cells [18] = conditions: compound 50 µM, 24 h
Description: as §7, §8, §9

HeLa cells = conditions: cited from earlier work
[19] = test system: human lung adenocarcinoma (H1975) cells; conditions: cited from earlier work
[20] = test system: human prostate carcinoma (DU 145) cells; conditions: cited from earlier work
[21] = test system: HONE-2 nasopharyngeal carcinoma cells; parameters: method as in PMID 31981746; conditions: 50 µM; cited from earlier work
[22] = test system: NPC-39 nasopharyngeal carcinoma cells; parameters: method as in PMID 31981746; conditions: 50 µM; cited from earlier work
[23] = test system: human small cell lung cancer cells (SCLCs); parameters: method as in doi:10.4314/tjpr.v14i8.11; conditions: 50 and 100 µM; cited from earlier work
[24] = test system: DLD-1, Dukes-type C colorectal adenocarcinoma; conditions: cited from earlier work
[25] = test system: HCT-116 human colorectal carcinoma cells; conditions: cited from earlier work
[26] = Caco-2, 24 h exposure, read-out: IC50 (µM) - Caco-2 cells: 24 h
[27] = Caco-2, 48 h exposure, read-out: IC50 (µM) - Caco-2 cells: 48 h
[28] = HepG2, 24 h exposure, read-out: IC50 (µM) - HepG2 cells: 24 h
[29] = HepG2, 48 h exposure, read-out: IC50 (µM) - HepG2 cells: 48 h

## O=C1C[C@@H](c2ccc(O)c(O)c2)Oc2cc(O)cc(O)c21 [Eriodictyol, eriodictyol]
[1]; 48 h, concentration not given, read-out: cell viability, Caco-2 (% of control)
  viability at 48 h: ~19%
Caco-2 cells [2]; 48 h, concentration not given
  reduction of Caco-2 cell viability: ~ 81%
Caco-2 cells [2]; Caco-2, 24 h, read-out: IC50 (µM) - Caco-2 cells: 24 h
  IC50: 245 ± 13.7 µM
Caco-2 cells [2]; Caco-2, 48 h, read-out: IC50 (µM) - Caco-2 cells: 48 h
  IC50: 82.5 µM
[3]; 24 h, concentration not given
  viability at 24 h: 56.9%
[3]; concentration not given
  viability at 48 h: 43.2%
HepG2 cells [4]; HepG2, 24 h, read-out: IC50 (µM) - HepG2 cells: 24 h
  IC50: > 300 µM
HepG2 cells [4]; HepG2, 48 h, read-out: IC50 (µM) - HepG2 cells: 48 h
  IC50: 231 ± 23.2 µM
Caco-2 cells [5]
  change in intracellular ROS, Caco-2: neither RA nor eriodictyol induced ROS increases
HepG2 cells [6]
  change in intracellular ROS, HepG2: significant (p < 0.05) increase in intracellular HepG2 ROS levels
HepG2 cells [7]
  MMP modulation, HepG2: hyperpolarization of the mitochondrial membrane
Caco-2 cells [8]
  cell death induction, Caco-2: induced apoptosis and necrosis
HepG2 cells [9]
  cell death induction, HepG2: induced apoptosis and necrosis
[10]
  cell cycle effect, A549: cell cycle arrest in the G2/M phase
  concentrations reducing the MMP in A549 cells: ≥ 25 µM
[11]
  concentrations inducing cytotoxicity, nasopharyngeal cells: ≥ 5 µM

## O=c1c(O)c(-c2ccc(O)c(O)c2)oc2cc(O)cc(O)c12 [Quercetin, quercetin]
[1]; 50 µM, 48 h, Figure 2E
  viability at 48 h, 50 µM: 77.6%
[1]; 50-100 µM, 48 h, read-out: cell viability, Caco-2
  viability at 48 h: ≥ 68%
[1]; concentrations up to 200 µM, 24 h, Figure 2E
  viability at 24 h: ~90%
Caco-2 cells [2]; 24 h
  concentrations giving significant decrease in Caco-2 cell viability: ≥ 75 µM
Caco-2 cells [2]; [26]
  IC50: > 300 µM
Caco-2 cells [2]; [27]
  IC50: 109 µM
[3]; 50-100 µM
  viability at 48 h: ≤ 20%
HepG2 cells [4]; 50 µM = lowest concentration tested, Figure 2M
  concentrations reducing HepG2 cell viability: ≥ 50 µM
HepG2 cells [4]; [28]
  IC50: 141 µM
HepG2 cells [4]; [29]
  IC50: 10.1 µM
HepG2 cells [6]
  change in intracellular ROS, HepG2: significant increase in ROS
HepG2 cells [7]
  MMP modulation, HepG2: did not induce variations in the MMP
Caco-2 cells [12]
  cell cycle effect, Caco-2: cell cycle arrest in the S and G2/M phases
HepG2 cells [13]
  cell cycle effect, HepG2: cell cycle arrest was observed in the G0/G1 phase
Caco-2 cells [8]
  % of healthy Caco-2 cells: ~ 86%
  cell death induction, Caco-2: shift in the cell distribution into late apoptosis
HepG2 cells [9]
  % of healthy HepG2 cells: ~ 76%
  cell death induction, HepG2: shift in the cell population to both early and late apoptosis
[14]
  MMP modulation, B16-BL6: loss of MMP
[15]
  MMP modulation, prostate cancer cells: loss of MMP
Caco-2 cells [16]; 50 µM, 48 h
  cell viability, Caco-2: 75–80%
Caco-2 cells [16]; 100 µM, 24 h
  effect on Caco-2 cell viability: no changes in cell viability
HepG2 cells [17]
  concentrations reducing HepG2 cell viability: ≥ 33 µM

## O=C(/C=C/c1ccc(O)c(O)c1/C=C/c1ccc(O)c(O)c1)O[C@H](Cc1ccc(O)c(O)c1)C(=O)O [Salvianolic acid A, salvianolic acid A]
[1]
  viability at 48 h, 300 µM: 54.4%
Caco-2 cells [2]; [26]
  IC50: > 300 µM
Caco-2 cells [2]; [27]
  IC50: > 300 µM
HepG2 cells [4]; [28]
  IC50: > 300 µM
HepG2 cells [4]; [29]
  IC50: > 300 µM
Caco-2 cells [18]
  MMP modulation, Caco-2: significant loss of MMP
HeLa cells
  IC50: ≤ 30 µM
[19]
  IC50: ≤ 30 µM
[20]
  IC50: ≤ 30 µM
[10]
  IC50: ≤ 30 µM
[21]
  effect on cell viability, HONE-2: no reduction in cell viability
[22]
  effect on cell viability, NPC-39: no reduction in cell viability
[23]
  MMP modulation, SCLC cells: loss of MMP
[24]
  concentrations with no or low cytotoxicity, DLD-1: up to 50 µM
[25]
  concentrations with no or low cytotoxicity, HCT-116: up to 50 µM
